In PubChem BioAssay (NCI) one finds TGI and GI50 data, which are given here for ten molecules.

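Cultured in 96-well plates, cells were exposed to test compound for 48 hours across five concentrations. GI50 = concentration required for 50% inhibition of growth. TGI is the concentration that stops growth completely.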

Test systems include MCF7 breast; UACC-257 melanoma; TK-10 renal; SK-OV-3 ovarian; SK-MEL-5 melanoma; SR leukemia; MDA-MB-435; NCI-H522 lung; UO-31 renal; HCC-2998 colon.
Holding throughout (test): NCI-60 cell line screen, 48 h

As for `O=C(O)c1cscc1Cc1cccs1`, the TGI with MCF7 breast, in the assay on UACC-257 melanoma, with TK-10 renal, in the assay on SK-OV-3 ovarian, with SK-MEL-5 melanoma and in the assay on SR leukemia was more than 100 µM in each case. Besides, the TGI in the assay on MDA-MB-435 and with NCI-H522 lung was more than 100 µM each time.
`Cc1nc2cc(Nc3nc(Nc4ccc(F)cc4)nc(N4CCN(C)CC4)n3)ccc2n1Cc1ccccc1`: the GI50 in the assay on MCF7 breast was 1.36 µM; with UACC-257 melanoma, 1.8 µM; in the assay on SK-OV-3 ovarian, 1.9 µM; with SK-MEL-5 melanoma, 1.54 µM; with SR leukemia, 0.266 µM; in the assay on UO-31 renal, 1.79 µM. The GI50 is 1.87 µM in the assay with MDA-MB-435 and 1.6 µM with NCI-H522 lung. Moreover, the TGI was 3.38 µM with MCF7 breast; 3.3 µM in the assay with UACC-257 melanoma; 3.78 µM with SK-OV-3 ovarian; 2.89 µM with SK-MEL-5 melanoma; 0.806 µM in the assay on SR leukemia; 3.82 µM in the assay with UO-31 renal. In addition, the TGI came to 3.56 µM in the assay with MDA-MB-435 and 3.21 µM in the assay on NCI-H522 lung.
Turning to `O=[N+]([O-])c1ccc(/C=C(/c2ccc([N+](=O)[O-])o2)S(=O)(=O)c2ccccc2)o1`, the TGI with MCF7 breast was 72.7 µM; in the assay with UACC-257 melanoma, 3.66 µM; with TK-10 renal it was 15.2 µM; with SK-OV-3 ovarian it was 90.8 µM; in the assay on SK-MEL-5 melanoma, 24.4 µM; with SR leukemia, 2.6 µM. For the same molecule, the TGI in the assay on UO-31 renal amounted to 16.3 µM; in the assay with MDA-MB-435, 29 µM; in the assay on NCI-H522 lung, 4.21 µM.
`CCCCCCC#CC#Cc1cccc(=O)o1`: the GI50 with MCF7 breast was 2.22 µM; in the assay on UACC-257 melanoma it was 2.21 µM; in the assay on TK-10 renal, 2.67 µM; in the assay with HCC-2998 colon, 2.52 µM; in the assay with SK-OV-3 ovarian, 23.8 µM; with SK-MEL-5 melanoma, 0.304 µM. Also, the GI50 was 3.26 µM in the assay with UO-31 renal, 1.39 µM with MDA-MB-435 and 1.8 µM in the assay with NCI-H522 lung. Moreover, the TGI in the assay on MCF7 breast was 22.3 µM; in the assay with UACC-257 melanoma, 7.87 µM; with TK-10 renal it was 8.23 µM; in the assay on HCC-2998 colon, 6.12 µM; with SK-OV-3 ovarian it was more than 70 µM; with SK-MEL-5 melanoma, 0.994 µM. The values for the TGI in the assay on UO-31 renal, in the assay on MDA-MB-435 and in the assay with NCI-H522 lung were more than 27.4 µM, 3.28 µM and 27.8 µM, respectively.
For the molecule `COc1cc(NCC2COc3c(ccc(OC)c3OC)C2=O)c([N+](=O)[O-])cc1OC` (stereo unspecified), the TGI with MCF7 breast, in the assay with UACC-257 melanoma, in the assay with TK-10 renal, in the assay on SK-OV-3 ovarian, with SK-MEL-5 melanoma and in the assay on SR leukemia was more than 100 µM in each case. Moreover, the TGI in the assay on UO-31 renal, in the assay on MDA-MB-435 and in the assay with NCI-H522 lung was more than 100 µM each time.
Take `Cc1cc(C)c2c(SCc3ccc(Cl)cc3Cl)nc(N)nc2n1`: the TGI is more than 100 µM in the assay with MCF7 breast; 38.2 µM in the assay with UACC-257 melanoma; 47.5 µM in the assay on TK-10 renal; more than 100 µM with SK-OV-3 ovarian; more than 100 µM with SK-MEL-5 melanoma; more than 100 µM in the assay on SR leukemia. In addition, the TGI in the assay on UO-31 renal is 70.7 µM; in the assay with MDA-MB-435, more than 100 µM; in the assay with NCI-H522 lung, 57.1 µM.
Regarding `CC(=O)c1cc2c(c3ccsc13)-c1ccccc1CC2`, the GI50 is 21 µM with MCF7 breast; 47.1 µM in the assay on UACC-257 melanoma; 25.4 µM in the assay on TK-10 renal; 8.95 µM in the assay with HCC-2998 colon; more than 100 µM in the assay on SK-OV-3 ovarian; 12.7 µM in the assay with SK-MEL-5 melanoma. In addition, the GI50 in the assay with UO-31 renal is 26.6 µM; in the assay on MDA-MB-435 it was 4.76 µM; with NCI-H522 lung it was 19.7 µM. In addition, the TGI with MCF7 breast was more than 100 µM; with UACC-257 melanoma, more than 100 µM; in the assay with TK-10 renal, 83 µM; in the assay with HCC-2998 colon it was 27.3 µM; in the assay with SK-OV-3 ovarian, more than 100 µM; with SK-MEL-5 melanoma, 35.7 µM. For the same molecule, the results for the TGI in the assay with UO-31 renal, in the assay on MDA-MB-435 and in the assay on NCI-H522 lung were 85.2 µM, more than 100 µM and 79.1 µM, respectively.
On to `COC(=O)OCc1ccc2c(c1)C(=O)c1c-2n(CCCBr)c(=O)c2cc([N+](=O)[O-])ccc12`, for which the GI50 is more than 100 µM in the assay on MCF7 breast; more than 100 µM with UACC-257 melanoma; 19.1 µM in the assay with TK-10 renal; 61.3 µM in the assay on HCC-2998 colon; 31.1 µM in the assay with SK-OV-3 ovarian; more than 100 µM in the assay on SK-MEL-5 melanoma. Also, the GI50 in the assay on UO-31 renal, in the assay on MDA-MB-435 and in the assay with NCI-H522 lung was more than 100 µM each time. Also, the TGI in the assay on MCF7 breast is more than 100 µM; with UACC-257 melanoma it was more than 100 µM; in the assay on TK-10 renal, 61.3 µM; in the assay with HCC-2998 colon, more than 100 µM; with SK-OV-3 ovarian, more than 100 µM; with SK-MEL-5 melanoma it was more than 100 µM. For the same molecule, the TGI with UO-31 renal, in the assay with MDA-MB-435 and in the assay on NCI-H522 lung was more than 100 µM throughout.
In the case of `COc1ccc(/C=C/C(=O)c2cc3c(N)c(C(=O)Nc4ccccc4C)sc3nc2C)cc1`, the GI50 with MCF7 breast is 0.24 µM; with UACC-257 melanoma, 16.1 µM; in the assay with TK-10 renal it was 2.48 µM; with HCC-2998 colon, 1.09 µM; with SK-OV-3 ovarian it was 0.605 µM; in the assay on SK-MEL-5 melanoma, 0.214 µM. The GI50 in the assay on SR leukemia was 0.593 µM; with UO-31 renal, 0.861 µM; in the assay with NCI-H522 lung, 0.194 µM. For the same molecule, the TGI with MCF7 breast is more than 50 µM; in the assay with UACC-257 melanoma it was more than 50 µM; in the assay on TK-10 renal it was more than 50 µM; with HCC-2998 colon it was 3.61 µM; in the assay on SK-OV-3 ovarian it was more than 50 µM; with SK-MEL-5 melanoma it was 7.58 µM. Moreover, the TGI in the assay with SR leukemia, with UO-31 renal and in the assay on NCI-H522 lung was more than 50 µM throughout.
On to `O=C1c2ccn(CCCCN3CCCCC3)c2C(=O)c2c1c(O)c1ccccc1c2O`, for which the GI50 with MCF7 breast was 14.2 µM; in the assay on UACC-257 melanoma, 5.83 µM; in the assay on TK-10 renal it was 13.6 µM; in the assay with HCC-2998 colon it was 2.95 µM; in the assay with SK-OV-3 ovarian, 15.8 µM; with SK-MEL-5 melanoma it was 13.3 µM. Moreover, the figures for the GI50 in the assay on UO-31 renal, with MDA-MB-435 and in the assay on NCI-H522 lung were 20.9 µM, 2.19 µM and 11.1 µM, respectively. Besides, the TGI in the assay on MCF7 breast was more than 62.3 µM; with UACC-257 melanoma, 12.2 µM; with TK-10 renal, 27.9 µM; with HCC-2998 colon it was 9.98 µM; with SK-OV-3 ovarian, 43.4 µM; in the assay on SK-MEL-5 melanoma it was 33.9 µM. In addition, the TGI with UO-31 renal is more than 100 µM; with MDA-MB-435 it was 5.27 µM; in the assay with NCI-H522 lung, 56 µM.
